Results published in patent publication US20210196635A1, “DRUG-CONTAINING PARTICLE” (TOWA PHARMACEUTICAL CO., LTD., priority 2018, published 2021).

Assay: Average particle diameter (D50) of powder
Assay type: physicochemical
Settings: powder as used for coating
Text: The term “an average particle diameter” used herein refers to a particle diameter of 50% cumulative percentage (D50) on volume-based measurement of powder particle, which can be measured on the mass with a commercially available laser diffraction type particle size distribution measuring device and sonic wave vibration type sieving analyzer.

average particle diameter: 3.38 μm
SMILES: C[C@H]1COc2c(N3CCN(C)CC3)c(F)cc3c(=O)c(C(=O)O)cn1c23.C[C@H]1COc2c(N3CCN(C)CC3)c(F)cc3c(=O)c(C(=O)O)cn1c23.O [Compound A, levofloxacin 0.5 hydrate]
